Experimental data reported in PubChem BioAssay (NCI).
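Step 1: Grow cells in 96-well plates. Step 2: Expose to compound for 48 hours at 5 concentrations. Step 3: Interpolate endpoints linearly; if unreached, use highest concentration. TGI: concentration producing complete growth inhibition.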

Columns and labels:
Experiment in all cases: growth of human tumour cells (NCI), 48 h
[1] = tested on: 786-0 renal
[2] = tested on: A498 renal
[3] = tested on: A549 NSCLC
[4] = tested on: ACHN renal
[5] = tested on: CAKI-1 renal
[6] = tested on: CCRF-CEM leukemia
[7] = tested on: COLO 205 colon
[8] = tested on: DLD-1 colon
[9] = tested on: DMS 114 small cell lung
[10] = tested on: DMS 273 small cell lung
[11] = tested on: EKVX NSCLC
[12] = tested on: HCT-116 colon
[13] = tested on: HCT-15 colon
[14] = tested on: HL-60(TB) leukemia
[15] = tested on: HOP-18 NSCLC
[16] = tested on: HOP-62 NSCLC
[17] = tested on: HOP-92 NSCLC
[18] = tested on: HT29 colon
[19] = tested on: IGROV1 ovarian
[20] = tested on: K-562 leukemia
[21] = tested on: KM12 colon
[22] = tested on: KM20L2 colon
[23] = tested on: LOX IMVI melanoma
[24] = tested on: LXFL 529 NSCLC
[25] = tested on: M14 melanoma
[26] = tested on: M19-MEL melanoma
[27] = tested on: MALME-3M melanoma
[28] = tested on: MOLT-4 leukemia
[29] = tested on: NCI-H226 lung
[30] = tested on: NCI-H460 lung
[31] = tested on: NCI-H522 lung
[32] = tested on: OVCAR-3 ovarian
[33] = tested on: OVCAR-4 ovarian
[34] = tested on: OVCAR-5 ovarian
[35] = tested on: OVCAR-8 ovarian
[36] = tested on: RPMI-8226 leukemia
[37] = tested on: RXF 393 renal
[38] = tested on: SF-268 CNS
[39] = tested on: SF-295 CNS
[40] = tested on: SF-539 CNS
[41] = tested on: SK-MEL-28 melanoma
[42] = tested on: SK-MEL-5 melanoma
[43] = tested on: SN12C renal
[44] = tested on: SNB-19 CNS
[45] = tested on: SNB-75 CNS
[46] = tested on: SNB-78 CNS
[47] = tested on: SW-620 colon
[48] = tested on: TK-10 renal
[49] = tested on: U251 CNS
[50] = tested on: UACC-257 melanoma
[51] = tested on: UACC-62 melanoma
[52] = tested on: UO-31 renal
[53] = tested on: XF 498 CNS
[54] = tested on: HCC-2998 colon
[55] = tested on: NCI-H23 lung
[56] = tested on: SK-MEL-2 melanoma
[57] = tested on: SK-OV-3 ovarian
[58] = tested on: SR leukemia
[59] = tested on: BT-549 breast
[60] = tested on: DU-145 prostate
[61] = tested on: HS 578T breast
[62] = tested on: MCF7 breast
[63] = tested on: MDA-MB-231 breast
[64] = tested on: MDA-MB-435
[65] = tested on: MDA-N
[66] = tested on: NCI/ADR-RES ovarian
[67] = tested on: PC-3 prostate
[68] = tested on: T-47D breast

Compound COc1ccccc1CCc1cc(OC)c(OC)c(OC)c1 has a TGI [1] of over 100 µM, a TGI [2] of over 100 µM and a TGI [3] of over 100 µM. It also gave a TGI [4] of over 100 µM, a TGI [5] of over 100 µM and a TGI [6] of over 100 µM. The TGI [7] was over 100 µM, the TGI [8] was over 100 µM and the TGI [9] was over 100 µM. For the same compound, the TGI [10] was over 100 µM, the TGI [11] was over 100 µM and the TGI [12] was over 100 µM. It also gave a TGI [13] of over 100 µM, a TGI [14] of 39.3 µM and a TGI [15] of over 100 µM. For the same compound, the TGI [16] was over 100 µM, the TGI [17] was over 100 µM and the TGI [18] was over 100 µM. The TGI [19] was over 100 µM, the TGI [20] was over 100 µM and the TGI [21] was over 100 µM. It also gave a TGI [22] of over 100 µM, a TGI [23] of over 100 µM and a TGI [24] of over 100 µM. The TGI [25] was over 100 µM, the TGI [26] was over 100 µM and the TGI [27] was over 100 µM. The TGI [28] was 59.9 µM, the TGI [29] was over 100 µM and the TGI [30] was over 100 µM. It also gave a TGI [31] of over 100 µM, a TGI [32] of over 100 µM and a TGI [33] of over 100 µM. The TGI [34] was 51.3 µM, the TGI [35] was over 100 µM and the TGI [36] was 68.8 µM. It also gave a TGI [37] of 57.7 µM, a TGI [38] of over 100 µM and a TGI [39] of over 100 µM. It also gave a TGI [40] of over 100 µM, a TGI [41] of over 100 µM and a TGI [42] of 42.7 µM. The TGI [43] was over 100 µM, the TGI [44] was over 100 µM and the TGI [45] was over 100 µM. It also gave a TGI [46] of over 100 µM, a TGI [47] of over 100 µM and a TGI [48] of over 100 µM. The TGI [49] was over 100 µM, the TGI [50] was over 100 µM and the TGI [51] was over 100 µM. For the same compound, the TGI [52] was 61.3 µM and the TGI [53] was 84.8 µM.
c1ccc(CNn2nnc3ccccc32)cc1 was tested, and the TGI [1] was over 100 µM, the TGI [3] was over 100 µM and the TGI [4] was over 100 µM. The TGI [5] was over 100 µM, the TGI [6] was over 100 µM and the TGI [7] was over 100 µM. For the same compound, the TGI [8] was over 100 µM, the TGI [9] was over 100 µM and the TGI [10] was over 100 µM. For the same compound, the TGI [11] was over 100 µM, the TGI [54] was over 100 µM and the TGI [13] was over 100 µM. For the same compound, the TGI [14] was over 100 µM, the TGI [16] was over 100 µM and the TGI [17] was over 100 µM. It also gave a TGI [18] of over 100 µM, a TGI [19] of over 100 µM and a TGI [20] of over 100 µM. It also gave a TGI [21] of over 100 µM, a TGI [22] of over 100 µM and a TGI [23] of over 100 µM. The TGI [24] was over 100 µM, the TGI [25] was over 100 µM and the TGI [26] was over 100 µM. For the same compound, the TGI [27] was over 100 µM, the TGI [28] was over 100 µM and the TGI [55] was over 100 µM. The TGI [30] was over 100 µM, the TGI [31] was over 100 µM and the TGI [32] was over 100 µM. For the same compound, the TGI [33] was over 100 µM, the TGI [34] was over 100 µM and the TGI [35] was over 100 µM. It also gave a TGI [36] of over 100 µM, a TGI [37] of over 100 µM and a TGI [38] of over 100 µM. For the same compound, the TGI [39] was over 100 µM, the TGI [56] was over 100 µM and the TGI [41] was over 100 µM. The TGI [42] was over 100 µM, the TGI [57] was over 100 µM and the TGI [43] was over 100 µM. It also gave a TGI [44] of over 100 µM, a TGI [45] of over 100 µM and a TGI [46] of over 100 µM. It also gave a TGI [47] of over 100 µM, a TGI [48] of over 100 µM and a TGI [50] of over 100 µM. It also gave a TGI [51] of over 100 µM, a TGI [52] of over 100 µM and a TGI [53] of over 100 µM.
COC1C=CC(O)C(CO)O1 (configuration not stated) was tested, and the TGI [3] was over 100 µM, the TGI [4] was over 100 µM and the TGI [6] was over 100 µM. It also gave a TGI [8] of over 100 µM, a TGI [11] of over 100 µM and a TGI [54] of over 100 µM. The TGI [12] was over 100 µM, the TGI [13] was over 100 µM and the TGI [14] was over 100 µM. For the same compound, the TGI [16] was over 100 µM, the TGI [17] was over 100 µM and the TGI [18] was over 100 µM. It also gave a TGI [19] of over 100 µM, a TGI [20] of over 100 µM and a TGI [21] of over 100 µM. For the same compound, the TGI [22] was over 100 µM, the TGI [23] was over 100 µM and the TGI [24] was over 100 µM. For the same compound, the TGI [25] was over 100 µM, the TGI [26] was over 100 µM and the TGI [27] was over 100 µM. For the same compound, the TGI [28] was over 100 µM, the TGI [55] was over 100 µM and the TGI [30] was over 100 µM. For the same compound, the TGI [31] was over 100 µM, the TGI [32] was over 100 µM and the TGI [33] was over 100 µM. It also gave a TGI [34] of over 100 µM, a TGI [35] of over 100 µM and a TGI [37] of over 100 µM. The TGI [39] was over 100 µM, the TGI [40] was over 100 µM and the TGI [56] was over 100 µM. It also gave a TGI [41] of over 100 µM, a TGI [42] of over 100 µM and a TGI [57] of over 100 µM. It also gave a TGI [43] of over 100 µM, a TGI [45] of over 100 µM and a TGI [46] of over 100 µM. For the same compound, the TGI [58] was over 100 µM, the TGI [47] was over 100 µM and the TGI [48] was over 100 µM. It also gave a TGI [49] of over 100 µM, a TGI [50] of over 100 µM and a TGI [51] of over 100 µM. It also gave a TGI [52] of over 100 µM and a TGI [53] of over 100 µM.
In the case of CC(=O)OCC12C(=O)C[C@@H](C)C3(CC(c4ccoc4)OC3=O)C1CCC(OC(C)=O)C21CO1 (some centres not stated), the TGI [1] is reported as over 100 µM, the TGI [2] is reported as over 100 µM and the TGI [3] is reported as over 100 µM. The TGI [4] was over 100 µM, the TGI [59] was over 100 µM and the TGI [5] was over 100 µM. For the same compound, the TGI [7] was over 100 µM, the TGI [60] was over 100 µM and the TGI [54] was over 100 µM. For the same compound, the TGI [12] was over 100 µM, the TGI [13] was over 100 µM and the TGI [14] was over 100 µM. The TGI [16] was over 100 µM, the TGI [17] was over 100 µM and the TGI [61] was over 100 µM. It also gave a TGI [18] of over 100 µM, a TGI [19] of over 100 µM and a TGI [20] of over 100 µM. It also gave a TGI [21] of over 100 µM, a TGI [23] of over 100 µM and a TGI [25] of over 100 µM. The TGI [27] was over 100 µM, the TGI [62] was over 100 µM and the TGI [63] was over 100 µM. It also gave a TGI [64] of over 100 µM, a TGI [65] of over 100 µM and a TGI [28] of over 100 µM. The TGI [29] was over 100 µM, the TGI [55] was over 100 µM and the TGI [30] was over 100 µM. The TGI [31] was over 100 µM, the TGI [66] was over 100 µM and the TGI [32] was over 100 µM. It also gave a TGI [33] of over 100 µM, a TGI [34] of over 100 µM and a TGI [35] of over 100 µM. It also gave a TGI [67] of over 100 µM, a TGI [36] of over 100 µM and a TGI [37] of over 100 µM. It also gave a TGI [38] of over 100 µM, a TGI [39] of over 100 µM and a TGI [40] of over 100 µM. The TGI [56] was over 100 µM, the TGI [41] was over 100 µM and the TGI [42] was over 100 µM. The TGI [43] was over 100 µM, the TGI [44] was over 100 µM and the TGI [45] was over 100 µM. It also gave a TGI [58] of over 100 µM, a TGI [47] of over 100 µM and a TGI [68] of over 100 µM. For the same compound, the TGI [48] was over 100 µM, the TGI [49] was over 100 µM and the TGI [50] was over 100 µM. For the same compound, the TGI [51] was over 100 µM and the TGI [52] was over 100 µM.
